Assay type in all cases: physicochemical
Data set [1] can be described thus: Example 19: release of cis-PMD from cis-PMD-O-β-D-3′-ketoglucopyranoside, 0.1 M deuterated phosphate buffer, 33% D6-DMSO, 32° C. How it is done:
In this example the rate of release of cis-PMD from (2R,3R,5S)-3,5-dihydroxy-2-(hydroxymethyl)-6-((5-(2-hydroxypropan-2-yl)-2-methylcyclohexyl)oxy)tetrahydro-4H-pyran-4-one (cis-PMD-O-β-D-3′-ketoglucopyranoside) in 0.1 M deuterated phosphate buffer solutions of differing pH containing 33% D6-DMSO was determined. 0.1 M of pH 5.8 and 7.4 stock buffered solutions of sodium dihydrogen phosphate and disodium hydrogen phosphate were prepared in deuterated water (D2O).
A stock solution of 10 mg of cis-PMD-O-β-D-3′ketoglucopyranoside in 0.5 mL of D6-DMSO were prepared.
To two parallel reaction vials, where indicated in the reaction table below, was added 0.20 mL of the glycoside substrate solutions in D6-DMSO and […] of low or high pH 0.1M phosphate buffer in D2O and the mixtures incubated by shaking at 32° C. After times indicated in table below, the mixtures where analysed by ^1H-NMR in a 400 MHz instrument.

The nature of data set [2]: Example 26: release of geraniol from 2′,6′-diacetyl-geranyl-O-β-D-3′-ketoglucopyranoside, 0.1 M deuterated phosphate buffer, 50% D6-DMSO, 32° C. How it is done:
In this example the rate of release of geraniol from (((2R,3R,5S)-5-acetoxy-6-(((E)-3,7-dimethylocta-2,6-dien-1-yl)oxy)-3-hydroxy-4-oxotetrahydro-2H-pyran-2-yl)methyl acetate (2′,6′-Diacetyl-geranyl-O-β-D-3′-ketoglucopyranoside) in 0.1 M deuterated phosphate buffer solutions of differing pH containing 50% D6-DMSO was determined.
(§1) 0.1 M of pH 5.8 and 7.4 stock buffered solutions of sodium dihydrogen phosphate and disodium hydrogen phosphate were prepared in deuterated water (D2O).
A stock solution of 15 mg of 2′,6′-diacetyl-geranyl-O-β-D-3′-ketoglucopyranoside in 1.5 mL of D6-DMSO were prepared.
To two parallel reaction vials, where indicated in the reaction table below, was added 0.35 mL of the glycoside substrate solutions in D6-DMSO and 0.35 mL of low or high pH 0.1M phosphate buffer in D2O and the mixtures incubated by shaking at 32° C. After times indicated in table below, the mixtures where analysed by ^1H-NMR in a 400 MHz instrument.

Data set [3] is described as follows: Example 27: release of phenol from 2′,6′-diacetyl-phenyl-O-β-D-3′-ketoglucopyranoside, 0.1 M deuterated phosphate buffer or D2O, 33% D6-DMSO, 32° C. As for the experimental part:
as §1
A stock solution of 25 mg of 2′,6′-diacetyl-phenyl-O-β-D-3′-ketoglucopyranoside in 1.0 mL of D6-DMSO were prepared.
To three parallel reaction vials, where indicated in the reaction table below, was added 0.20 mL of the glycoside substrate solutions in D6-DMSO and 0.40 mL of low or high pH 0.1M phosphate buffer in D2O and the mixtures incubated by shaking at 32° C. After times indicated in table below, the mixtures where analysed by ^1H-NMR in a 400 MHz instrument.

The nature of data set [4]: Example 14: release of eugenol from eugenyl-O-β-D-3′-ketoglucopyranoside, 0.1 M deuterated phosphate buffer or D2O, 33% D6-DMSO, 32° C. As for the experimental part: In this example the rate of release of eugenol from (2S,3S,5R,6R)-2-(4-allyl-2-methoxyphenoxy)-3,5-dihydroxy-6-(hydroxymethyl)tetrahydro-4H-pyran-4-one (eugenyl-O-β-D-3′-ketoglucopyranoside) in 0.1 M deuterated phosphate buffer solutions of differing pH containing 33% D6-DMSO was determined.
as §1
A stock solution of 15 mg of eugenyl-O-β-D-3′-ketoglucopyranoside in 1.0 mL of D6-DMSO were prepared.
To three parallel reaction vials, where indicated in the reaction table below, was added 0.20 mL of the glycoside substrate solutions in D6-DMSO and 0.40 mL of low or high pH 0.1M phosphate buffer in D2O or D2O and the mixtures incubated by shaking at 32° C. After times indicated in table below, the mixtures where analysed by ^1H-NMR in a 400 MHz instrument.

The nature of data set [5]: Example 18: release of picaridin from 250 μM picaridin-O-β-D-3′-ketoglucopyranoside in different pH aqueous buffers, 32° C., UPLC. As for the experimental part:
In this example the rate of release of picaridin from a solution of sec-butyl 2-(2-(((2R,3S,5R,6R)-3,5-dihydroxy-6-(hydroxymethyl)-4-oxotetrahydro-2H-pyran-2-yl)oxy)ethyl)piperidine-1-carboxylate (picaridin-O-β-D-3′-ketoglucopyranoside) different pH aqueous buffers was determined.
Parallel mixtures containing 250 μM picaridin-O-β-D-3′-ketoglucopyranoside in 0.05M K2HPO4 0.95M/KH2PO4, pH=8.5 buffer (Reaction 1), 0.17M Na2HPO4/0.02M citric acid, pH=7 buffer (Reaction 2), 0.12M Na2HPO4/0.04M citric acid buffer, pH=5.8 (Reaction 3) and 0.04M sodium citrate/0.06M citric acid buffer, pH=4 (Reaction 4) were incubated at 32° C. Aliquots of 10 μl were periodically taken, diluted with MeCN (90 μl) and analysed by UPLC using the following instrument and conditions: • Stationary phase: Acquity UPLC® BEH C18 1.7 μm (2.1 mm×50 mm) (Waters) • Mobile phase: A: water+0.1% formic acid; B: acetonitrile+0.1% formic acid • The chromatographic equipment employed was an UPLC QSM Waters Acquity. • Gradient conditions:
• Flow Rate(mL/min) 0.6 • Source Temperature (° C.) 150 • Desolvation Temperature (° C.) 500 • Cone Gas Flow (L/Hr) 50 • Desolvation Gas Flow (L/Hr) 900 • Target Column Temperature 35° C.
Target Sample Temperature 8.0° C.

For the molecule `C[C@@H]1CC[C@@H](C(C)(C)O)C(O[C@@H]2O[C@H](CO)[C@@H](O)C(=O)[C@H]2O)C1` (mixture of isomers) [cis-PMD-O-β-D-3′-ketoglucopyranoside, (2R,3R,5S,6R)-3,5-dihydroxy-2-(hydroxymethyl)-6-(((1S,2R,5R)-2-(2-hydroxypropan-2-yl)-5-methylcyclohexyl)-oxy)tetrahydro-4H-pyran-4-one], the “pH dependence of cis-PMD release (in words)” value in data set [1] (32° C.) was “only slowly degraded at pH 5.8, but releases cis-PMD at a significantly higher rate at pH 7.4”. Moreover, the “% Conversion by 1H-NMR” value in data set [1] (pH 5.8, 0 h) is 0%; in data set [1] (pH 5.8, 3 h), 0%; in data set [1] (pH 5.8, 20 h), 0%; in data set [1] (pH 5.8, 95 h), under 5%; in data set [1] (pH 7.4, 0 h), 0%; in data set [1] (pH 7.4, 3 h), 12%. Besides, the “% Conversion by 1H-NMR” value in data set [1] (pH 7.4, 20 h) is recorded as 39%; in data set [1] (pH 7.4, 95 h) it was 45%; in data set [1] (pH 7.4, 167 h) it was 85%.
With `CC(=O)OC[C@H]1O[C@@H](OC/C=C(\C)CCC=C(C)C)[C@H](OC(C)=O)C(=O)[C@@H]1O` [((2R,3R,5S,6R)-5-acetoxy-6-(((E)-3,7-dimethylocta-2,6-dien-1-yl)oxy)-3-hydroxy-4-oxotetrahydro-2H-pyran-2-yl)methyl acetate], the “geraniol release (in words)” value in data set [2] (32° C.) was “generates geraniol at both pH 5.8 and pH 7.4”. The “% Conversion by 1H-NMR” value in data set [2] (pH 5.8, 0 h) came to 0%; in data set [2] (pH 5.8, 5 h), 10%; in data set [2] (pH 5.8, 24 h) it was 20%; in data set [2] (pH 5.8, 48 h) it was 39%; in data set [2] (pH 5.8, 120 h), 43%; in data set [2] (pH 5.8, 480 h), 92%. The “% Conversion by 1H-NMR” value in data set [2] (pH 5.8, column head 19 (between 120 h and 480 h)) was 62%; in data set [2] (pH 7.4, 0 h) it was 0%; in data set [2] (pH 7.4, 5 h), 6%; in data set [2] (pH 7.4, 24 h), 25%; in data set [2] (pH 7.4, 48 h), 33%; in data set [2] (pH 7.4, 120 h) it was 37%. Also, the “% Conversion by 1H-NMR” value in data set [2] (pH 7.4, 480 h) was 85%; in data set [2] (pH 7.4, column head 19 (between 120 h and 480 h)), 55%.
For the molecule `CC(=O)OC[C@H]1O[C@@H](Oc2ccccc2)[C@H](OC(C)=O)C(=O)[C@@H]1O` [((2R,3R,5S,6S)-5-acetoxy-3-hydroxy-4-oxo-6-phenoxytetrahydro-2H-pyran-2-yl)methyl acetate], the “phenol release (in words)” value in data set [3] (32° C.) is “generates phenol at both pH 5.8 and pH 7.4 and in D2O”. Moreover, the “% Conversion by 1H-NMR” value is recorded as 0% in data set [3] (D2O, 0 h); 0% in data set [3] (D2O, 4 h); 10% in data set [3] (D2O, 22 h); 21% in data set [3] (D2O, 70 h (printed under the 52 h column)); 14% in data set [3] (pH 5.8, 0 h); 18% in data set [3] (pH 5.8, 4 h). The “% Conversion by 1H-NMR” value in data set [3] (pH 5.8, 22 h) was 24%; in data set [3] (pH 5.8, 52 h), 26%; in data set [3] (pH 5.8, 120 h) it was 36%; in data set [3] (pH 5.8, 432 h), 54%; in data set [3] (pH 7.4, 0 h), 19%; in data set [3] (pH 7.4, 4 h), 43%. Besides, the “% Conversion by 1H-NMR” value in data set [3] (pH 7.4, 22 h) amounted to 74%; in data set [3] (pH 7.4, 52 h), 81%; in data set [3] (pH 7.4, 120 h), 93%; in data set [3] (pH 7.4, 432 h), 100%.
As for `C=CCc1ccc(O[C@@H]2O[C@H](CO)[C@@H](O)C(=O)[C@H]2O)c(OC)c1` [eugenyl-O-β-D-3′-ketoglucopyranoside, (2S,3S,5R,6R)-2-(4-allyl-2-methoxyphenoxy)-3,5-dihydroxy-6-(hydroxymethyl)tetrahydro-4H-pyran-4-one], the “pH dependence of eugenol release (in words)” value in data set [4] (32° C.) was “only slowly degraded at pH 5.8, but releases eugenol at a significantly higher rate at pH 7.4”. The “% Conversion by 1H-NMR” value in data set [4] (D2O, 1 h) was 3%; in data set [4] (D2O, 5 h) it was 3%; in data set [4] (D2O, 23 h) it was 5%; in data set [4] (D2O, 69 h) it was 10%; in data set [4] (pH 5.8, 1 h), 3%; in data set [4] (pH 5.8, 5 h), 3%. For the same molecule, the “% Conversion by 1H-NMR” value is listed as 5% in data set [4] (pH 5.8, 23 h); 5% in data set [4] (pH 5.8, 69 h); 3% in data set [4] (pH 7.4, 1 h); 8% in data set [4] (pH 7.4, 5 h); 60% in data set [4] (pH 7.4, 23 h); 80% in data set [4] (pH 7.4, 69 h).
For the molecule `CCC(C)OC(=O)N1CCCCC1CCO[C@@H]1O[C@H](CO)[C@@H](O)C(=O)[C@H]1O` (stereo partly drawn) [picaridin-O-β-D-3′-ketoglucopyranoside, sec-butyl 2-(2-(((2R,3S,5R,6R)-3,5-dihydroxy-6-(hydroxymethyl)-4-oxotetrahydro-2H-pyran-2-yl)oxy)ethyl) piperidine-1-carboxylate], the “pH dependence of degradation (in words)” value in data set [5] (32° C.) is “degraded at increasing rate between pH 4 and pH 8.5”. The Picaridin released in data set [5] (Reaction 1, pH=8.5 buffer, 0 h) was 1 µM; in data set [5] (Reaction 1, pH=8.5 buffer, 7 h) it was 2 µM; in data set [5] (Reaction 1, pH=8.5 buffer, 24 h), 7 µM; in data set [5] (Reaction 1, pH=8.5 buffer, 50 h), 15 µM; in data set [5] (Reaction 2, pH=7 buffer, 0 h), 1 µM; in data set [5] (Reaction 2, pH=7 buffer, 7 h) it was 1 µM. The Picaridin released in data set [5] (Reaction 2, pH=7 buffer, 24 h) was found to be 2 µM; in data set [5] (Reaction 2, pH=7 buffer, 50 h), 4 µM; in data set [5] (Reaction 3, pH=5.8 buffer, 0 h), 0.25 µM; in data set [5] (Reaction 3, pH=5.8 buffer, 7 h), 0.75 µM; in data set [5] (Reaction 3, pH=5.8 buffer, 24 h) it was 1 µM; in data set [5] (Reaction 3, pH=5.8 buffer, 50 h), 2 µM. Besides, the Picaridin released is 0.25 µM in data set [5] (Reaction 4, pH=4 buffer, 0 h); 0.75 µM in data set [5] (Reaction 4, pH=4 buffer, 7 h); 1 µM in data set [5] (Reaction 4, pH=4 buffer, 24 h); 1.75 µM in data set [5] (Reaction 4, pH=4 buffer, 50 h).

For the origin of these results see patent publication US12509482B2, “3′-ketoglycoside compound for the slow release of a volatile alcohol” (GLYCOSCIENCE, S.L., priority 2020, dated 2025).
